Like-named read-outs stand apart in the source and are kept apart here.

The EC50 is the concentration giving half of the maximal effect.

In one data set the test system is CCRF-CEM leukemia cells. In words: XTT cytotoxicity assay, drug-sensitive cells. Type of data set: cell-based, human. As for the experimental part: (§1) Multidrug-resistant, P-glycoprotein-overexpressing CEM/ADR5000 cells and their parental, drug-sensitive counterpart, CCRF-CEM cells were used. The cell lines were provided by Dr. Daniel Steinbach (University of Ulm, Ulm, Germany).
(§2) Doxorubicin resistance of CEM/ADR5000 was maintained as described. […] The cell lines were maintained in RPMI medium (Life Technologies) supplemented with 10% FCS in a humidified 7% CO2 atmosphere at 37° C. Cells were passaged twice weekly. All experiments were done with cells in the logarithmic growth
(§3) Cytotoxicity was assessed using the 2,3-bis[2-methoxy-4-nitro-5-sulfophenyl]-2H-tetrazolium-5-carboxanilide inner salt (XTT) assay kit (Roche, Indianapolis, Ind.), which measures the metabolic activity of viable cells. Toxicity of compounds was determined with the Cell Proliferation Kit II (Roche Diagnostics, Mannheim, Germany), according to the manufacturer's instructions.
Fresh stock solutions of each compound were prepared in DMSO at a concentration of 100 mM, and a dilution series was prepared in DMEM. Cells were suspended at a final concentration of 1×10^5 cells/ml, and […] were aliquoted per well into a 96-well culture plate (Costar, Corning, USA). Marginal wells were filled with 100 μL of media to minimize evaporation. A row of wells with cells was left untreated and another row of wells with cells was treated with 1 μL DMSO, the latter serving as a solvent control. All studies were performed in duplicate, in a range of concentrations, and in two independent experiments with different batches of cells.
(§4) The ligand binding module of Sigma plot software (version 10.0) was used for analysis.
(§5) All compounds were tested both towards drug-sensitive CCRF-CEM leukemia cells and their multidrug-resistant subline, CEM/ADR5000.
On the technique in general: Formazan colour is commonly taken as a measure of viable cells.

In data set [1] the test system is CEM/ADR5000 leukemia cells (P-glycoprotein-overexpressing). In words: XTT cytotoxicity assay, multidrug-resistant cells. The following applies: for Degree of resistance: CEM/ADR5000 versus CCRF-CEM. Type of data set: cell-based, human. On the procedure: as §1, §2, §3
Fresh stock solutions of each compound were prepared in DMSO at a concentration of 100 mM, and a dilution series was prepared in DMEM. […] Marginal wells were filled with 100 μL of media to minimize evaporation. A row of wells with cells was left untreated and another row of wells with cells was treated with 1 μL DMSO, the latter serving as a solvent control. All studies were performed in duplicate, in a range of concentrations, and in two independent experiments with different batches of cells.
as §4, §5

The target in the next data set is P-glycoprotein (P-gp) (Homo sapiens, UniProt P08183). In words: Calcein-AM assay with flow cytometry in CEM/ADR5000 cells. The following applies: for EC max (intracellular calcein fluorescence compared to untreated controls) / EC50: CEM/ADR5000 cells, flow cytometry; for EC50: read-out: EC50 calcein-AM assay.
Sequence of P-glycoprotein (P-gp) (P08183 whole entry): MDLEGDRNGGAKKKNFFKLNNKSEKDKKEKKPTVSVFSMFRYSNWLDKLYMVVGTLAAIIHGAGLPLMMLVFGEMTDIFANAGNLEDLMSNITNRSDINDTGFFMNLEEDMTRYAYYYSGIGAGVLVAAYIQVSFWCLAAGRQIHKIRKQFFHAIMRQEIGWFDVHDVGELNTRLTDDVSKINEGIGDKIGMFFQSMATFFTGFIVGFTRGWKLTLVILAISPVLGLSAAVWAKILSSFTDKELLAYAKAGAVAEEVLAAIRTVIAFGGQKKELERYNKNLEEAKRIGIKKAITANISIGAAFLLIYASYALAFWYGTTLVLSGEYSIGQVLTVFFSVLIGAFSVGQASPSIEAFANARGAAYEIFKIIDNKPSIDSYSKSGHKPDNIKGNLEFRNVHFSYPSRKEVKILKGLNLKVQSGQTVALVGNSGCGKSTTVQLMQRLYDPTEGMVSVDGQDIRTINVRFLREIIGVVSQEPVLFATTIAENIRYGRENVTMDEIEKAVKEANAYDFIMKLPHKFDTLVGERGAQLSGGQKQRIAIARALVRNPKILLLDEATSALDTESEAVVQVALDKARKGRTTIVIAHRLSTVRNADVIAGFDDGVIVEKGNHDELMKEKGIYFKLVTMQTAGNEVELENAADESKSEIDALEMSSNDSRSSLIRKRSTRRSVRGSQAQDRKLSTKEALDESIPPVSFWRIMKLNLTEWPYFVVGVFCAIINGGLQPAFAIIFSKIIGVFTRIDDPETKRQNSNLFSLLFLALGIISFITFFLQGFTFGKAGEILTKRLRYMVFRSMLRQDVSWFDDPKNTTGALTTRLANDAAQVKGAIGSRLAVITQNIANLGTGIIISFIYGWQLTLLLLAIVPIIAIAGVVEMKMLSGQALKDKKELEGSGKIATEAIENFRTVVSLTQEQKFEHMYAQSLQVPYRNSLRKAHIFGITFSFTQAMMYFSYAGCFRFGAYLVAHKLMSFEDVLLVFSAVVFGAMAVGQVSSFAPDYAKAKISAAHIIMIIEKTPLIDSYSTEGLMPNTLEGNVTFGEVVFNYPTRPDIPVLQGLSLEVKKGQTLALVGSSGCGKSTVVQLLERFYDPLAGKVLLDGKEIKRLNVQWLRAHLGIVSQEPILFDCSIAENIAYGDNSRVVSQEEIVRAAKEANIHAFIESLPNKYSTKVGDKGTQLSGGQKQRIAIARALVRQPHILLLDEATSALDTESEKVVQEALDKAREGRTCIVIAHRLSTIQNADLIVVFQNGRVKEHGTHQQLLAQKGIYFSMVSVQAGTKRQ
Another data set deals with zebrafish embryos. Kind of data set: Tg(fli1:EGFP) zebrafish embryo in vivo angiogenesis assay. To be noted: for Anti-angiogenic effect (in words): zebrafish embryos, concentration range; for Concentration at which intersomitic vessel (ISV) formation was suppressed: as low as, toxicity evident above. On the procedure: Tg(fli1:EGFP) zebrafish, which express enhanced green fluorescent protein (GFP) in their endothelial cells, were used as an in vivo model for angiogenesis. At 20 hours post-fertilization (hpf), zebrafish embryos (10 per well/condition) were bathed in fish media, containing a concentration range of each of the compounds or control. Compounds had been dissolved as stock solutions in DMSO, stored at room temperature, and serially diluted in fish media prior to use. The anti-angiogenic tyrosinase kinase inhibitor SU5416 (Pfizer), and a vehicle-alone control containing the maximum concentration of DMSO were used as controls in all experiments.
In the first sets of experiments, a broad range of concentrations were used to identify the maximum tolerable dose, based on toxicity to the embryos, visualized directly by light microscopy. Subsequent experiments were performed a minimum of two times. Live analyses of the embryos were performed under light and fluorescence microscopy at 28 hpf and 48 hpf to monitor viability, overall morphology, and pattern of swimming. Angiogenesis was evaluated visually by fluorescence microscopy.
The developmental growth and patterning of the dorsal aorta, posterior cardinal vein, intersomitic vessels (ISV), and vascular plexus (VP) were monitored, as was the heart rate, and blood flow.
Eight compounds (4, 7, 8, 9, 10, 11, 12 and 15) were compared to artesunate for their anti-angiogenic potential using an in vivo zebrafish embryo model system (Table III blow). DMSO at concentrations of 0.5, 1, and 2% was used as vehicle control. No effects were observed on overall morphology, heart rate, blood flow, or angiogenesis in control embryos. The anti-angiogenic agent SU5416 was used as a positive control.

The subject of the next data set is HUVEC cells. In words: VEGF-induced HUVEC proliferation/viability assay (WST1). Type of data set: cell-based, human. To be noted: 30 ng/ml VEGF165, 0.5-100 μM, 96 hrs. On the procedure: Single donor HUVEC cells were purchased from Lonza (Breda, Netherlands). Cells were seeded at 5,000 cells per well in 96-well microtiterplates in EGM-2EV medium (Invitrogen). Upon adherence the cells were gently washed twice with PBS and starved overnight in EGM-2EV medium with reduced FBS content (0.1%; starvation medium).
After 96 hrs, cell growth was quantified using the WST1 Rapid cell proliferation kit (Calbiochem), and was expressed in percentage of the control value (VEGF alone). Experiments were carried out in triplets.
To further evaluate the anti-angiogenic potential of the present novel compounds, proliferation and survival of human umbilical vein endothelial cells (HUVECs) treated with VEGF and two compounds that were very active in the zebrafish model were assayed.

The test system of data set [2] is P-gp expressed in porcine capillaries. In words: Transport of NBD-CSA into porcine brain capillary lumens (confocal microscopy). Type of data set: cell-based. An excerpt: Luminal P-gp was inhibited by a well-known selective P-gylcoprotein inhibitor, PSC-833.
Where [3] appears, read: Homo sapiens, ADR5000, read-out: IC50 CEM/ADR5000.
Where [4] appears, read: multidrug-resistant CEM/ADR5000 cells, XTT, read-out: IC50 CEM/ADR5000.

Procedure for P-glycoprotein (P-gp): The intracellular accumulation of calcein inside the cells is measured by using FACS analysis. The points indicate mean values of fluorescent effect, vertical lines show standard error calculated on the base of two independent experiment replicates. The effect corresponds to a control of cells which were treated only with calcein.
Test compounds were dissolved in DMSO as stock solutions and further dilutions were made with DMEM/HAM's F12 1:1 (Biochrom). […] A range of concentrations of test compound in a volume of 300-600 μL cell suspension were added, followed by a 15 min incubation at 37° C. Calcein-AM (300 μL) (MoBiTec, Göttingen, Germany) in DMEM/HAM's F12 1:1 was added to a final concentration of 1 μM and incubated for 30 min at 37° C.
For the calcein-AM assay using flow cytometry, the cell density of suspensions in DMEM/Ham's F12 1:1 was 2.5×10^7 cells/ml.
Gating on forward and side scatter in concert with propidium iodide staining allowed distinguishing live endothelial cells.
Twenty thousand cells were sorted in each run, and data were processed and analyzed with CellQuest (Franklin Lakes, N.J., USA). All fluorescence signals were corrected for background fluorescence. Calcein-AM auto-hydrolysis was measured in control samples (n=6) without cells.

As to `C[C@@H]1CC[C@H]2[C@@H](C)C(=O)O[C@@H]3O[C@@]4(C)CC[C@@H]1[C@]32OO4` [Compound 1, artemisinin], the IC50 came to 148 ± 16.6 µM in the data set with CCRF-CEM leukemia cells (Homo sapiens) and 94.9 ± 30.5 µM in data set [1] (setting [3]). Moreover, the “P-gp inhibition judged by calcein fluorescence” value at P-glycoprotein (P-gp) (CCRF-CEM and CEM/ADR5000 cells, FIG. 5) is “do not act as P-gp inhibitors”. Also, on P-glycoprotein (P-gp), the “EC max (intracellular calcein fluorescence compared to untreated controls)” value is listed as 114.1 ± 2.85^ %.
With `C[C@@H]1CC[C@H]2[C@@H](C)CO[C@@H]3O[C@@]4(C)CC[C@@H]1[C@]32OO4` [Compound 3, Deoxoartemisinin], the values for the IC50 (with CCRF-CEM leukemia cells (Homo sapiens); in data set [1] (setting [3])) were 241 ± 50.7 µM and 117 ± 8.2 µM, respectively. Also, the Degree of resistance in data set [1] was 0.49.
Take `CC1=CO[C@@H]2O[C@@]3(C)CC[C@H]4[C@H](C)CC[C@@H]1[C@@]24OO3` [Compound 4, Anhydrodihydroartemisinin]: the IC50 stood at 83.4 ± 7.51 µM with CCRF-CEM leukemia cells (Homo sapiens) and 33.6 ± 0.68 µM in data set [1] (setting [3]). In addition, the “Dead = number of dead embryos up to 48 hpf” value (“Dead = number” below) came out at 2 with zebrafish embryos (50 μg/ml, N = 10 embryos) and 5 with zebrafish embryos (75 μg/ml, N = 10 embryos). In addition, the “Vasc. Defects = number of surviving embryos with vascular defects” value in the data set with zebrafish embryos (50 μg/ml, N = 10 embryos) worked out at 0; in the data set with zebrafish embryos (75 μg/ml, N = 10 embryos), 0. Further, in the data set on zebrafish embryos (75 μg/ml, N = 10 embryos), the Other defects observed entry was “B, E”.
With `CC(=O)OC1O[C@@H]2O[C@@]3(C)CC[C@H]4[C@H](C)CCC([C@H]1C)[C@@]24OO3` (some centres unmarked) [Compound 7, 10-Dihydroartemisinyl acetate], in data set [1], the Degree of resistance was 12.83. Moreover, the “Anti-angiogenic effect (in words)” value with zebrafish embryos is given as “dose-dependent anti-angiogenic effects”. Further, the “Inhibition of proliferation and survival of HUVECs” value in the data set with HUVEC cells was “inhibited the proliferation and survival of HUVECs significantly stronger than artemisinin”.
Turning to `C[C@H]1C(OC(=O)C(Cl)Cl)O[C@@H]2O[C@@]3(C)CC[C@H]4[C@H](C)CCC1[C@@]24OO3` (some centres unmarked) [Compound 8, 10-Dihydroartemisinyl 2′,2′-Dichloroacetate], the “Anti-angiogenic effect (in words)” value with zebrafish embryos is “dose-dependent anti-angiogenic effects”. Further, the “Inhibition of luminal P-gp (NBD-CSA in capillary lumen)” value (shortened to “Inhibition of luminal P-gp”) in data set [2] is given as “almost empty lumen”.
In turn, `CCCC(=O)OC1O[C@@H]2O[C@@]3(C)CC[C@H]4[C@H](C)CCC([C@H]1C)[C@@]24OO3` (some centres unmarked) [Compound 9, 10-Dihydroartemisinyl Butyrate] displayed a Degree of resistance in data set [1] of 0.51. Further, the “Dead = number” value in the data set with zebrafish embryos (25 μg/ml, N = 30 embryos) came to 17. In the data set with zebrafish embryos, the “Concentration at which intersomitic vessel (ISV) formation was suppressed” value amounted to 1 µg/mL and the “Anti-angiogenic effect (in words)” value is on record as “dose-dependent anti-angiogenic effects”.
For the compound `CC(C)C(=O)OC1O[C@@H]2O[C@@]3(C)CC[C@H]4[C@H](C)CCC([C@H]1C)[C@@]24OO3` (some centres unmarked) [Compound 10], the Degree of resistance in data set [1] amounted to 22.46. In addition, the “Anti-angiogenic effect (in words)” value with zebrafish embryos is recorded as “dose-dependent anti-angiogenic effects”. In the data set with HUVEC cells, the “Inhibition of proliferation and survival of HUVECs” value is “inhibited the proliferation and survival of HUVECs significantly stronger than artemisinin”.
`CCCC(CCC)C(=O)OC1O[C@@H]2O[C@@]3(C)CC[C@H]4[C@H](C)CCC([C@H]1C)[C@@]24OO3` (some centres unmarked) [Compound 11, 10-Dihydroartemisinyl 2′-Propylpentanoate]: the Degree of resistance in data set [1] turned out to be 1.23. Also, in the data set with zebrafish embryos (10 μg/ml, N = 30 embryos), the “Dead = number” value was 22. Further, in the data set on zebrafish embryos, the “Concentration at which intersomitic vessel (ISV) formation was suppressed” value came out at 1 µg/mL and the “Anti-angiogenic effect (in words)” value is recorded as “dose-dependent anti-angiogenic effects”.
As for `C[C@H]1C(OC(=O)C(C)(C)C)O[C@@H]2O[C@@]3(C)CC[C@H]4[C@H](C)CCC1[C@@]24OO3` (some centres unmarked) [Compound 12, 10-Dihydroartemisinyl 2′,2′-Dimethylpropianate], the Degree of resistance in data set [1] came out at 2.65. For the same compound, the “Dead = number” value in the data set on zebrafish embryos (1.0 μg/ml, N = 10 embryos) turned out to be 0. The “Anti-angiogenic effect (in words)” value in the data set with zebrafish embryos is “a specific anti-angiogenic effect was not observed”. Besides, the “Toxicity to embryos (in words)” value in the data set with zebrafish embryos (zebrafish, in vivo) is “the most toxic at comparable doses”.
Regarding `C[C@H]1C(OC(=O)c2ccccc2)O[C@@H]2O[C@@]3(C)CC[C@H]4[C@H](C)CCC1[C@@]24OO3` (some centres unmarked) [Compound 13, 10-dihydroartemisinyl benzoate], the Degree of resistance in data set [1] stood at 7.79.
Compound `C[C@H]1C(OC(=O)N(C)C)O[C@@H]2O[C@@]3(C)CC[C@H]4[C@H](C)CCC1[C@@]24OO3` (some centres unmarked) [Compound 14] displayed a Degree of resistance in data set [1] of 19.76.
On to `CCC(C)OC1OC2OC3(C)CCC4C(C)CCC(C1C)C24OO3` (centres unmarked) [Compound 15, 10-(2′-Butyloxy)Dihydroartemisinin], for which the IC50 stood at 16.7 ± 7.34 µM in the data set with CCRF-CEM leukemia cells and 7.96 ± 3.76 µM in data set [1] (setting [4]). In addition, the Degree of resistance in data set [1] was 0.47. The “Dead = number” value with zebrafish embryos (1.0 μg/ml, N = 10 embryos) stood at 0; in the data set on zebrafish embryos (10 μg/ml, N = 10 embryos), 1; in the data set with zebrafish embryos (25 μg/ml, N = 10 embryos) it was 0. In addition, the “Vasc. Defects = number of surviving embryos with vascular defects” value in the data set with zebrafish embryos (1.0 μg/ml, N = 10 embryos) is given as 0; in the data set with zebrafish embryos (10 μg/ml, N = 10 embryos) it was 0; in the data set with zebrafish embryos (25 μg/ml, N = 10 embryos), 0. Besides, the “Inhibition of luminal P-gp” value in data set [2] is recorded as “almost empty lumen”. Also, at P-glycoprotein (P-gp), the “EC max (intracellular calcein fluorescence compared to untreated controls)” value is 1180 ± 178.7%. The half-maximal effective concentration (EC50) on P-glycoprotein (P-gp) was 61.8 ± 9.62 µM.
With `CC1CCC2C(C)C(SCCN)OC3OC4(C)CCC1C32OO4` (centres unmarked) [Compound 16, 10-Dihydroartemisinyl Thioethylamine], in the data set with CCRF-CEM leukemia cells, the IC50 is 0.86 ± 0.19 µM. Moreover, the Degree of resistance in data set [1] was 3.88. Further, the IC50 in data set [1] (setting [4]) was determined as 3.34 ± 0.64 µM. For the same compound, on P-glycoprotein (P-gp), the “EC max (intracellular calcein fluorescence compared to untreated controls)” value is 1011 ± 106.3% and the EC50 is 27.2 ± 4.69 µM.
Consider `C/C=C/C[C@@H](C)C(=O)[C@H]1C(=O)N[C@@H](C(C)C)C(=O)N(C)CC(=O)N(C)[C@@H](CC(C)C)C(=O)N[C@@H](C(C)C)C(=O)N(C)[C@@H](CC(C)C)C(=O)N[C@@H](C)C(=O)N[C@H](C)C(=O)N(C)[C@@H](CC(C)C)C(=O)N(C)[C@@H](CC(C)C)C(=O)N(C)[C@@H](C(C)C)C(=O)N1C` [PSC-833, reference compound], for which, in data set [2], the “Inhibition of luminal P-gp” value is “inhibited”.
Take `Cc1cc(C)c(/C=C2\C(=O)Nc3ccccc32)[nH]1` [SU5416, reference compound]: the “Formation of intersomitic vessels (ISVs) at 28 hpf” value in the data set with zebrafish embryos (10 μg/ml, 28 hpf) is reported as “completely blocked”. In the data set on zebrafish embryos (10 μg/ml, 48 hpf), the “ISV sprouting at 48 hpf compared to control embryos” value is given as “sprouted only minimally”.

The record behind these values is US20130296412A1, “Artemisinin-Like Derivatives with Cytotoxic and Anti-Angiogenic Properties” (DAFRA PHARMA N.V., priority 2010, published 2013).
